Test results taken from US20260262643A1, “HERBICIDAL BENZOXAZINES” (FMC CORPORATION, priority 2022, published 2026).

Experiments:
blackgrass [1] = assay: Test A preemergence; type: in vivo, Alopecurus myosuroides
Outline: (§1)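 Plants were grown in loam and sand and treated preemergence or postemergence (one- to two-leaf stage, 2–10 cm) with compound in solvent plus surfactant. Response was scored against untreated controls after 10 greenhouse days, where 0 means no effect and 100 complete control.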

corn [2] = assay: Test A preemergence; type: in vivo, Zea mays
Outline: as §1

foxtail, giant [3] = assay: Test A preemergence; type: in vivo, Setaria faberi
Outline: as §1

goosegrass [4] = assay: Test A preemergence; type: in vivo, Eleusine indica
Outline: as §1

kochia [5] = assay: Test A preemergence; type: in vivo, Bassia scoparia
Outline: as §1

oat, wild [6] = assay: Test A preemergence; type: in vivo, Avena fatua
Outline: as §1

pigweed, palmer [7] = assay: Test A preemergence; type: in vivo, Amaranthus palmeri
Outline: as §1

ragweed [8] = assay: Test A preemergence; type: in vivo, Ambrosia artemisiifolia
Outline: as §1

ryegrass, Italian [9] = assay: Test A preemergence; type: in vivo, Lolium multiflorum
Outline: as §1

soybean [10] = assay: Test A preemergence; type: in vivo, Glycine max
Outline: as §1

wheat [11] = assay: Test A preemergence; type: in vivo, Triticum aestivum
Outline: as §1

blackgrass [12] = assay: Test A postemergence; type: in vivo, Alopecurus myosuroides; conditions: postemergence, 10 days
Outline: as §1

corn [13] = assay: Test A postemergence; type: in vivo, Zea mays; conditions: postemergence, 10 days
Outline: as §1

foxtail, giant [14] = assay: Test A postemergence; type: in vivo, Setaria faberi; conditions: postemergence, 10 days
Outline: as §1

goosegrass [15] = assay: Test A postemergence; type: in vivo, Eleusine indica; conditions: postemergence, 10 days
Outline: as §1

kochia [16] = assay: Test A postemergence; type: in vivo, Bassia scoparia; conditions: postemergence, 10 days
Outline: as §1

oat, wild [17] = assay: Test A postemergence; type: in vivo, Avena fatua; conditions: postemergence, 10 days
Outline: as §1

pigweed, palmer [18] = assay: Test A postemergence; type: in vivo, Amaranthus palmeri; conditions: postemergence, 10 days
Outline: as §1

ragweed [19] = assay: Test A postemergence; type: in vivo, Ambrosia artemisiifolia; conditions: postemergence, 10 days
Outline: as §1

ryegrass, Italian [20] = assay: Test A postemergence; type: in vivo, Lolium multiflorum; conditions: postemergence, 10 days
Outline: as §1

soybean [21] = assay: Test A postemergence; type: in vivo, Glycine max; conditions: postemergence, 10 days
Outline: as §1

wheat [22] = assay: Test A postemergence; type: in vivo, Triticum aestivum; conditions: postemergence, 10 days
Outline: as §1

galium = assay: Test A postemergence; type: in vivo, Galium aparine; conditions: postemergence, 10 days
Outline: as §1

horseweed = assay: Test A postemergence; type: in vivo, Erigeron canadensis; conditions: postemergence, 10 days
Outline: as §1

barnyardgrass = assay: Test B flooded paddy test; type: in vivo, Echinochloa crus-galli; conditions: 250 g ai/ha, Flood, 13 days, 0 to 100 scale (0 no effect, 100 complete control)
Outline: (§2)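 2-leaf stage; pots flooded 3 cm over soil; compound dosed into paddy water; depth kept constant. Greenhouse, 13 d. Visual rating vs controls, 0 (no effect)–100 (complete control). Dash = no result.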

ducksalad = assay: Test B flooded paddy test; type: in vivo, Heteranthera limosa; conditions: 250 g ai/ha, Flood, 13 days, 0 to 100 scale (0 no effect, 100 complete control)
Outline: as §2

rice = assay: Test B flooded paddy test; type: in vivo, Oryza sativa; conditions: 250 g ai/ha, Flood, 13 days, 0 to 100 scale (0 no effect, 100 complete control)
Outline: as §2

sedge, umbrella = assay: Test B flooded paddy test; type: in vivo, Cyperus difformis; conditions: 250 g ai/ha, Flood, 13 days, 0 to 100 scale (0 no effect, 100 complete control)
Outline: as §2

[23] = 125 g ai/ha, visual injury after 10 days, 0 to 100 scale, 0 is no effect, 100 is complete control
[24] = 500 g ai/ha, 0 to 100 scale (0 no effect, 100 complete control), 10 days
[25] = 125 g ai/ha, 0 to 100 scale, 0 no effect, 100 complete control
[26] = 500 g ai/ha, visual injury, 0 to 100 scale (0 no effect, 100 complete control)

CCc1ncn(-c2cccc(C(=O)N3C[C@H](C)Oc4c(Cl)cccc43)c2)n1 [Compound 91]
80: Plant response rating, Blackgrass (blackgrass [1]; [23]) | Plant response rating, Corn (corn [13]; [26]) | Foxtail, Giant plant response rating (foxtail, giant [14]; [25]) | Goosegrass plant response rating (goosegrass [15]; [25]) | Kochia plant response rating (kochia [16]; [25]) | Ryegrass, Italian plant response rating (ryegrass, Italian [20]; [25]) | Plant response rating, Wheat (wheat [22]; [26])
90: Plant response rating, Blackgrass (blackgrass [1]; [24]) | Plant response rating, Foxtail, Giant (foxtail, giant [3]; [23]) | Plant response rating, Kochia (kochia [5]; [23]) | Plant response rating, Oat, Wild (oat, wild [6]; [24]) | Plant response rating, Pigweed, Palmer (pigweed, palmer [7]; [23]) | Plant response rating, Ryegrass, Italian (ryegrass, Italian [9]; [23]) | Blackgrass plant response rating (blackgrass [12]; [25]) | Plant response rating, Foxtail, Giant (foxtail, giant [14]; [26]) | Plant response rating, Goosegrass (goosegrass [15]; [26]) | Plant response rating, Oat, Wild (oat, wild [17]; [26]) | Plant response rating, Pigweed, Palmer (pigweed, palmer [18]; [26]) | Plant response rating, Ducksalad (ducksalad)
100: Plant response rating, Foxtail, Giant (foxtail, giant [3]; [24]) | Plant response rating, Goosegrass (goosegrass [4]; [23]) | Plant response rating, Goosegrass (goosegrass [4]; [24]) | Plant response rating, Kochia (kochia [5]; [24]) | Plant response rating, Pigweed, Palmer (pigweed, palmer [7]; [24]) | Plant response rating, Ryegrass, Italian (ryegrass, Italian [9]; [24]) | Plant response rating, Blackgrass (blackgrass [12]; [26]) | Plant response rating, Kochia (kochia [16]; [26]) | Plant response rating, Ryegrass, Italian (ryegrass, Italian [20]; [26]) | Soybean plant response rating (soybean [21]; [25]) | Plant response rating, Soybean (soybean [21]; [26]) | Galium plant response rating (galium; [25]) | Plant response rating, Galium (galium; [26])
35: Plant response rating, Sedge, Umbrella (sedge, umbrella)
60: Plant response rating, Corn (corn [2]; [24]) | Corn plant response rating (corn [13]; [25])
30: Plant response rating, Corn (corn [2]; [23]) | Plant response rating, Ragweed (ragweed [8]; [24]) | Ragweed plant response rating (ragweed [19]; [25]) | Wheat plant response rating (wheat [22]; [25])
25: Plant response rating, Barnyardgrass (barnyardgrass)
10: Plant response rating, Oat, Wild (oat, wild [6]; [23])
0: Plant response rating, Ragweed (ragweed [8]; [23]) | Plant response rating, Wheat (wheat [11]; [23]) | Horseweed plant response rating (horseweed; [25]) | Plant response rating, Rice (rice)
70: Plant response rating, Soybean (soybean [10]; [24]) | Pigweed, Palmer plant response rating (pigweed, palmer [18]; [25]) | Plant response rating, Ragweed (ragweed [19]; [26])
20: Plant response rating, Soybean (soybean [10]; [23]) | Plant response rating, Wheat (wheat [11]; [24]) | Plant response rating, Horseweed (horseweed; [26])
50: Oat, Wild plant response rating (oat, wild [17]; [25])
